The results in this text go back to PubChem BioAssay AID1996.

In brackets after ≈: the same amount, converted by molar mass. Some results are limits rather than exact numbers.

For this data set the following is noted: buffer; pH 7.4; 200.0 µM.
Consider `O=C(Cc1ccc(F)cc1)N1CCN(c2ccc([N+](=O)[O-])cc2)CC1`, for which the solubility (kinetic) (usually solubility judged after dilution from a stock solution rather than from solid) was 3.5 µg/mL (≈ 10.2 µM).

Turning to `O=C(Cc1cccs1)N1CCN=C1SCc1ccc(F)cc1`, the kinetic solubility is 26 µg/mL (≈ 77.7 µM).

`COc1cc(NC(=O)C[n+]2ccc(C(=O)c3ccccc3)cc2)cc(OC)c1.[Cl-]` came in with a solubility (kinetic) above 61.9 µg/mL.

`C=CCC(C(=O)NC(C)c1ccccc1)C(=O)NC(C)c1ccccc1` (stereo not drawn): the solubility (kinetic) came out at 16.5 µg/mL (≈ 47.1 µM).

The compound `O=C(Nc1ccc2c(c1)Cc1ccccc1-2)c1ccccc1F` gave a solubility (kinetic) below 0.6 µg/mL.

`COc1ccc(/C=C(\C#N)C(=O)Nc2cccc(C)n2)cc1` came in with a solubility (kinetic) of 0.4 µg/mL (≈ 1.36 µM).

For the compound `COc1ccccc1-c1nnc(SCC(=O)N2CCCC2)o1`, the solubility (kinetic) was above 47.9 µg/mL.

As for `N#C/C(=C\c1ccc(O)cc1)C(=O)N1CCCC1`, the kinetic solubility was found to be 30.1 µg/mL (≈ 124 µM).

For `CCOC(=O)c1c(C)[nH]c(C)c1C(=O)COC(=O)/C=C/c1ccccc1[N+](=O)[O-]`, the kinetic solubility came to 6 µg/mL (≈ 15 µM).

As to `O=C(O)C1CN(C(=O)c2ccccc2)c2cc(Cl)ccc2O1` (stereo not drawn), the solubility (kinetic) is above 47.7 µg/mL.

As to `COc1cc2c(cc1OC)-c1cc(Nc3ccc(F)cc3)nc(=O)n1CC2`, the kinetic solubility came to 2.1 µg/mL (≈ 5.72 µM).

Take `O=C(COc1ccccc1[N+](=O)[O-])NCC1COc2ccccc2O1` (stereo not drawn): the solubility (kinetic) was determined as 24.2 µg/mL (≈ 70.3 µM).

Consider `Cl.c1coc(C2=NCCc3ccccc32)c1`, for which the solubility (kinetic) turned out to be 27.9 µg/mL.

Compound `CCCC(=O)N1CC(=O)Nc2ccc(C)cc2C1c1ccccc1` (stereo not drawn) displayed a kinetic solubility above 48.4 µg/mL.

Regarding `CC(=O)NCc1ccc(-c2nc3ccccc3s2)cc1`, the solubility (kinetic) is 8.6 µg/mL (≈ 30.5 µM).

Turning to `Cc1cc(C)c(NC(=O)c2cccc(NC(=O)c3ccco3)c2)c(C)c1`, the kinetic solubility turned out to be 44.3 µg/mL (≈ 127 µM).

In turn, `Cc1ccccc1NC(=O)N1CCN(C/C=C/c2ccccc2)CC1` displayed a solubility (kinetic) above 50.3 µg/mL.

`O=C(NCCNc1ccccc1[N+](=O)[O-])c1cc(F)c(F)cc1Cl` gave a solubility (kinetic) of 1.2 µg/mL (≈ 3.37 µM).

Take `COc1cc(OC)cc(C(=O)Nc2nnc(-c3cccnc3)o2)c1`: the kinetic solubility is above 48.9 µg/mL.

On to `O=c1[nH]c2ccccc2c(O)c1-c1ccccc1`, for which the solubility (kinetic) was found to be 17.2 µg/mL (≈ 72.5 µM).

With `O=C(NC1CC(=O)c2sccc21)c1ccc(Cl)cc1Cl` (stereo not drawn), the kinetic solubility was above 48.9 µg/mL.

Take `CCOc1ccc(S(=O)(=O)NC2CCCCC2C)cc1` (stereo not drawn): the solubility (kinetic) stood at 37.5 µg/mL (≈ 126 µM).

In turn, `CSc1ccc(CN2CCCCCC2)cc1` came in with a kinetic solubility of 22.1 µg/mL (≈ 93.9 µM).

`CC(C)Oc1ccc(Cc2cnc(=S)[nH]c2N)cc1` came in with a solubility (kinetic) of 15.4 µg/mL (≈ 55.9 µM).

For the compound `COc1ccc(NC(=O)COC(=O)C23CC4CC(CC(NC(C)=O)(C4)C2)C3)cc1S(=O)(=O)N1CCOCC1`, the kinetic solubility was above 82.4 µg/mL.

`COc1ccc(NC(=O)COc2ccc3oc(=O)cc(C)c3c2)cc1` registered a solubility (kinetic) below 0.7 µg/mL.

On to `CC1C(C#N)=C(N)OC2=C1C(=O)CC(c1ccccc1)C2` (stereo not drawn), for which the kinetic solubility is above 42 µg/mL.

In the case of `Cc1ccc(NC(=O)N2CCC(c3ccccc3)C2)cc1C` (stereo not drawn), the kinetic solubility worked out at 2.6 µg/mL (≈ 8.83 µM).

Consider `CN(C(=O)COC(=O)c1ccc2ccccc2n1)c1ccccc1`, for which the kinetic solubility is above 48.1 µg/mL.

Turning to `CCCCOc1ccc(C(=O)CCN2CCCCC2)cc1.Cl`, the solubility (kinetic) was above 48.9 µg/mL.

`COc1ccc(C(=O)c2sc(Nc3ccccc3)nc2N)cc1OC` came in with a kinetic solubility of 0.6 µg/mL (≈ 1.69 µM).

`CN(CC(=O)Nc1cccc(F)c1)C(=O)c1ccc(N2CCOCC2)c([N+](=O)[O-])c1` registered a kinetic solubility of 33.7 µg/mL (≈ 80.9 µM).

Turning to `O=C1CSC(=Nc2cccc(C(=O)O)c2)N1`, the solubility (kinetic) is above 35.4 µg/mL.

`NS(=O)(=O)c1cc(C(=O)Nc2ccc3c(c2)CCC3)ccc1Cl` showed a kinetic solubility of 4.6 µg/mL (≈ 13.1 µM).

In the case of `Cc1ccc(C(=O)COC(=O)[C@@H](NC(=O)c2ccco2)C(C)C)s1`, the solubility (kinetic) is above 52.4 µg/mL.

Compound `Oc1c(CN2CCOCC2)ccc2ccccc12` registered a solubility (kinetic) of 16.9 µg/mL (≈ 69.5 µM).

As for `O=C(NCC(c1ccco1)N1CCOCC1)C1CCCCC1` (stereo not drawn), the solubility (kinetic) is above 46 µg/mL.

`CCCc1nc(SCC(=O)c2ccc(OC)cc2)c2ccccc2n1`: the kinetic solubility turned out to be 1.4 µg/mL (≈ 3.97 µM).

`COCCSc1ccccc1C(=O)Nc1ccc(Cl)cc1` returned a solubility (kinetic) of 44.1 µg/mL (≈ 137 µM).

Turning to `COc1cccc(Nc2c(Nc3cccc(OC)c3)c(=O)c2=O)c1`, the kinetic solubility is below 0.3 µg/mL.

For `Cc1cccc(C)c1OC(=O)Cc1ccccc1[N+](=O)[O-]`, the kinetic solubility was 1.8 µg/mL (≈ 6.31 µM).

Take `O=c1[nH]c(NCCO)nnc1Cc1ccc(Cl)cc1`: the solubility (kinetic) was above 42.1 µg/mL.

The compound `O=C(CCNC(=O)c1ccc([N+](=O)[O-])cc1)NCc1ccco1` registered a kinetic solubility above 47.6 µg/mL.

Consider `COC(=O)CCCSc1nccn1-c1ccccc1`, for which the kinetic solubility is above 41.5 µg/mL.

`COc1ccc(C(=O)Nc2ccccc2C(=O)Nc2ccc(C(=O)O)cc2)cc1` returned a kinetic solubility above 58.6 µg/mL.

The compound `CCS(=O)(=O)c1ccc(C(=O)NC)c(Cl)c1Cl` returned a kinetic solubility above 44.4 µg/mL.

In the case of `CC(C)(C)c1ccc(C(=O)NCCNC(=O)c2ccco2)cc1`, the solubility (kinetic) worked out at 39.5 µg/mL (≈ 126 µM).

Take `O=C(/C=C/c1ccccc1)NC(=S)Nc1ccccc1O`: the solubility (kinetic) was found to be 0.5 µg/mL (≈ 1.68 µM).

Compound `COc1ccccc1C(=O)CN1C(=O)NC2(CCCc3ccccc32)C1=O` (stereo not drawn) registered a kinetic solubility of 8.4 µg/mL (≈ 23.1 µM).

Compound `COc1cc(C(=O)NC2CCCc3ccccc32)cc(OC)c1OC` (stereo not drawn) displayed a kinetic solubility of 5.9 µg/mL (≈ 17.3 µM).

`Cc1c(C)n(CCC(=O)O)c2ccccc12`: the solubility (kinetic) was above 32.6 µg/mL.

The compound `CCNS(=O)(=O)c1ccc(NC(=O)Nc2ccc3c(c2)OCO3)cc1` displayed a solubility (kinetic) of 12.1 µg/mL (≈ 33.3 µM).

In turn, `C=CCNC(=O)c1ccc(CSc2nc3ccccc3s2)cc1` registered a solubility (kinetic) of 8.2 µg/mL (≈ 24.1 µM).

With `CN(CCO)C(=O)c1c(NC(=O)c2ccccc2)sc2c1CCCC2`, the kinetic solubility came to 34.1 µg/mL (≈ 95.1 µM).

With `O=C(Cn1c(=S)[nH]c2ccccc2c1=O)NCCc1ccccc1`, the solubility (kinetic) was determined as 0.9 µg/mL (≈ 2.65 µM).

The compound `CSc1cccc(NC(=O)C(=O)NCc2ccccc2)c1` came in with a solubility (kinetic) below 0.3 µg/mL.

The compound `Cc1cccc(C(=O)OCC(=O)NCc2ccc3c(c2)OCO3)c1C` displayed a kinetic solubility of 14.5 µg/mL (≈ 42.5 µM).

For the compound `Cc1c(O)ccc(C(=O)CN2CC(C)OC(C)C2)c1O` (stereo not drawn), the kinetic solubility is above 41.9 µg/mL.

Compound `CCOc1ccc(C2C([N+](=O)[O-])=C(C)N(C)C(=O)N2C)cc1OC` (stereo not drawn) gave a solubility (kinetic) above 50.3 µg/mL.

Compound `Cc1ccc(CN2CC(C(=O)Nc3ccncc3)CC2=O)cc1` (stereo not drawn) had a kinetic solubility above 46.4 µg/mL.

With `Cn1c(=O)c(Sc2ccccc2)c(O)c2ccccc21`, the solubility (kinetic) is above 42.5 µg/mL.

As to `Cc1ccc(C)c(N2C(=O)CC(Cc3ccc(Cl)cc3)C2=O)c1` (stereo not drawn), the kinetic solubility came to 17.6 µg/mL (≈ 53.7 µM).

Regarding `O=[N+]([O-])c1ccc(CCn2ccnc2)cc1`, the solubility (kinetic) is above 32.6 µg/mL.

As to `O=C(Cc1ccccc1)N1CCN=C1SCc1cccc([N+](=O)[O-])c1`, the solubility (kinetic) came to 9.7 µg/mL (≈ 27.3 µM).

In turn, `Clc1ccc(Cn2ccc3ccccc32)cn1` displayed a kinetic solubility of 26.4 µg/mL (≈ 109 µM).

`Oc1ccc(/C=N/N2CCCCC2)cc1O` registered a kinetic solubility above 33 µg/mL.

`O=C(O)/C=C/C(=O)Nc1ccc(Oc2ccccc2)cc1`: the kinetic solubility is above 42.5 µg/mL.

The compound `CCN1C(=O)CCCc2ccccc21` came in with a solubility (kinetic) above 28.4 µg/mL.

`CCc1cc(C(=O)Nc2ccccc2N2CCOCC2)sc1C`: the solubility (kinetic) stood at 2.2 µg/mL (≈ 6.66 µM).

On to `Cc1cccc(N2CCN(C(=O)c3ccccn3)CC2C)c1` (stereo not drawn), for which the solubility (kinetic) is above 44.3 µg/mL.

`Fc1ccc(F)c(NC2=NCCCCC2)c1` returned a solubility (kinetic) above 33.6 µg/mL.

For the compound `CN(c1ccc(O)cc1)S(=O)(=O)c1ccc2ccccc2c1`, the kinetic solubility was above 47 µg/mL.

Compound `c1coc(CSc2ncnc3c2oc2ccccc23)c1` displayed a solubility (kinetic) of 0.9 µg/mL (≈ 3.19 µM).
